Patent US8952024B2, “Herbicidal pyrimidone derivatives” (E I du Pont de Nemours and Company, priority 2009, dated 2015)

Test system: yellow nutsedge (Cyperus esculentus)
Assay: Test B pre-/postemergence plant response
Format: in vivo
Conditions: 62 g ai/ha, postemergence; 0 is no effect, 100 is complete control; 13 to 15 days
Procedure, shortened: (§1)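 Plants treated either at seeding (loam/sand soil) or postemergence at 2 to 18 cm height, using a surfactant-containing non-phytotoxic solvent formulation. Evaluation was visual after 13 to 15 days, 0 to 100 scale relative to controls.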

| SMILES | Nutsedge, Yellow plant response rating (0 to 100 scale) |
| --- | --- |
| CCCCn1c(-c2cccc(Cl)c2)ncc(C(=O)C2=C(O)CCCC2=O)c1=O [Compound 146] | 10 |

Same assay, conditions: Postemergence, 31 g ai/ha; 0 to 100 scale (0 no effect, 100 complete control)

| SMILES | Plant response rating, Nutsedge, Yellow |
| --- | --- |
| CCCCn1c(-c2cccc(Cl)c2)ncc(C(=O)C2=C(O)CCCC2=O)c1=O [Compound 146] | 5 |

Same assay, conditions: Postemergence, 125 g ai/ha; scale 0 to 100 (0 no effect, 100 complete control)

| SMILES | Plant response rating, Nutsedge, Yellow |
| --- | --- |
| CCCCn1c(-c2cccc(Cl)c2)ncc(C(=O)C2=C(O)CCCC2=O)c1=O [Compound 146] | 20 |

Same assay, conditions: Postemergence, 250 g ai/ha; scale 0 to 100 (0 no effect, 100 complete control); 13 to 15 days

| SMILES | Plant response rating, Nutsedge, Yellow |
| --- | --- |
| CCCCn1c(-c2cccc(Cl)c2)ncc(C(=O)C2=C(O)CCCC2=O)c1=O [Compound 146] | 40 |

Test system: large crabgrass (Digitaria sanguinalis)
Assay: Test B pre-/postemergence plant response
Format: in vivo
Conditions: 62 g ai/ha, postemergence; 0 is no effect, 100 is complete control; 13 to 15 days
Procedure, shortened: as §1

| SMILES | Crabgrass, Large plant response rating (0 to 100 scale) |
| --- | --- |
| CCCCn1c(-c2cccc(Cl)c2)ncc(C(=O)C2=C(O)CCCC2=O)c1=O [Compound 146] | 75 |

Same assay, conditions: Postemergence, 31 g ai/ha; 0 to 100 scale (0 no effect, 100 complete control)

| SMILES | Plant response rating, Crabgrass, Large |
| --- | --- |
| CCCCn1c(-c2cccc(Cl)c2)ncc(C(=O)C2=C(O)CCCC2=O)c1=O [Compound 146] | 65 |

Same assay, conditions: Postemergence, 125 g ai/ha; scale 0 to 100 (0 no effect, 100 complete control)

| SMILES | Plant response rating, Crabgrass, Large |
| --- | --- |
| CCCCn1c(-c2cccc(Cl)c2)ncc(C(=O)C2=C(O)CCCC2=O)c1=O [Compound 146] | 85 |

Same assay, conditions: Postemergence, 250 g ai/ha; scale 0 to 100 (0 no effect, 100 complete control); 13 to 15 days

| SMILES | Plant response rating, Crabgrass, Large |
| --- | --- |
| CCCCn1c(-c2cccc(Cl)c2)ncc(C(=O)C2=C(O)CCCC2=O)c1=O [Compound 146] | 98 |

Test system: lambsquarters (Chenopodium album)
Assay: Test B pre-/postemergence plant response
Format: in vivo
Conditions: 62 g ai/ha, postemergence; 0 is no effect, 100 is complete control; 13 to 15 days
Procedure, shortened: as §1

| SMILES | Lambsquarters plant response rating (0 to 100 scale) |
| --- | --- |
| CCCCn1c(-c2cccc(Cl)c2)ncc(C(=O)C2=C(O)CCCC2=O)c1=O [Compound 146] | 98 |

Same assay, conditions: Postemergence, 31 g ai/ha; 0 to 100 scale (0 no effect, 100 complete control)

| SMILES | Plant response rating, Lambsquarters |
| --- | --- |
| CCCCn1c(-c2cccc(Cl)c2)ncc(C(=O)C2=C(O)CCCC2=O)c1=O [Compound 146] | 95 |

Same assay, conditions: Postemergence, 125 g ai/ha; scale 0 to 100 (0 no effect, 100 complete control)

| SMILES | Plant response rating, Lambsquarters |
| --- | --- |
| CCCCn1c(-c2cccc(Cl)c2)ncc(C(=O)C2=C(O)CCCC2=O)c1=O [Compound 146] | 100 |

Same assay, conditions: Postemergence, 250 g ai/ha; scale 0 to 100 (0 no effect, 100 complete control); 13 to 15 days

| SMILES | Plant response rating, Lambsquarters |
| --- | --- |
| CCCCn1c(-c2cccc(Cl)c2)ncc(C(=O)C2=C(O)CCCC2=O)c1=O [Compound 146] | 100 |

Test system: woolly cupgrass (Eriochloa villosa)
Assay: Test B pre-/postemergence plant response
Format: in vivo
Conditions: 62 g ai/ha, postemergence; 0 is no effect, 100 is complete control; 13 to 15 days
Procedure, shortened: as §1

| SMILES | Cupgrass, Woolly plant response rating (0 to 100 scale) |
| --- | --- |
| CCCCn1c(-c2cccc(Cl)c2)ncc(C(=O)C2=C(O)CCCC2=O)c1=O [Compound 146] | 65 |

Same assay, conditions: Postemergence, 31 g ai/ha; 0 to 100 scale (0 no effect, 100 complete control)

| SMILES | Plant response rating, Cupgrass, Woolly |
| --- | --- |
| CCCCn1c(-c2cccc(Cl)c2)ncc(C(=O)C2=C(O)CCCC2=O)c1=O [Compound 146] | 60 |

Same assay, conditions: Postemergence, 125 g ai/ha; scale 0 to 100 (0 no effect, 100 complete control)

| SMILES | Plant response rating, Cupgrass, Woolly |
| --- | --- |
| CCCCn1c(-c2cccc(Cl)c2)ncc(C(=O)C2=C(O)CCCC2=O)c1=O [Compound 146] | 65 |

Same assay, conditions: Postemergence, 250 g ai/ha; scale 0 to 100 (0 no effect, 100 complete control); 13 to 15 days

| SMILES | Plant response rating, Cupgrass, Woolly |
| --- | --- |
| CCCCn1c(-c2cccc(Cl)c2)ncc(C(=O)C2=C(O)CCCC2=O)c1=O [Compound 146] | 75 |

Test system: morningglory (Ipomoea coccinea)
Assay: Test B pre-/postemergence plant response
Format: in vivo
Conditions: 62 g ai/ha, postemergence; 0 is no effect, 100 is complete control; 13 to 15 days
Procedure, shortened: as §1

| SMILES | Morningglory plant response rating (0 to 100 scale) |
| --- | --- |
| CCCCn1c(-c2cccc(Cl)c2)ncc(C(=O)C2=C(O)CCCC2=O)c1=O [Compound 146] | 15 |

Same assay, conditions: Postemergence, 31 g ai/ha; 0 to 100 scale (0 no effect, 100 complete control)

| SMILES | Plant response rating, Morningglory |
| --- | --- |
| CCCCn1c(-c2cccc(Cl)c2)ncc(C(=O)C2=C(O)CCCC2=O)c1=O [Compound 146] | 0 |

Same assay, conditions: Postemergence, 125 g ai/ha; scale 0 to 100 (0 no effect, 100 complete control)

| SMILES | Plant response rating, Morningglory |
| --- | --- |
| CCCCn1c(-c2cccc(Cl)c2)ncc(C(=O)C2=C(O)CCCC2=O)c1=O [Compound 146] | 85 |

Same assay, conditions: Postemergence, 250 g ai/ha; scale 0 to 100 (0 no effect, 100 complete control); 13 to 15 days

| SMILES | Plant response rating, Morningglory |
| --- | --- |
| CCCCn1c(-c2cccc(Cl)c2)ncc(C(=O)C2=C(O)CCCC2=O)c1=O [Compound 146] | 95 |

Test system: Italian ryegrass (Lolium multiflorum)
Assay: Test B pre-/postemergence plant response
Format: in vivo
Conditions: 62 g ai/ha, postemergence; 0 is no effect, 100 is complete control; 13 to 15 days
Procedure, shortened: as §1

| SMILES | Ryegrass, Italian plant response rating (0 to 100 scale) |
| --- | --- |
| CCCCn1c(-c2cccc(Cl)c2)ncc(C(=O)C2=C(O)CCCC2=O)c1=O [Compound 146] | 5 |

Same assay, conditions: Postemergence, 31 g ai/ha; 0 to 100 scale (0 no effect, 100 complete control)

| SMILES | Plant response rating, Ryegrass, Italian |
| --- | --- |
| CCCCn1c(-c2cccc(Cl)c2)ncc(C(=O)C2=C(O)CCCC2=O)c1=O [Compound 146] | 5 |

Same assay, conditions: Postemergence, 125 g ai/ha; scale 0 to 100 (0 no effect, 100 complete control)

| SMILES | Plant response rating, Ryegrass, Italian |
| --- | --- |
| CCCCn1c(-c2cccc(Cl)c2)ncc(C(=O)C2=C(O)CCCC2=O)c1=O [Compound 146] | 10 |

Same assay, conditions: Postemergence, 250 g ai/ha; scale 0 to 100 (0 no effect, 100 complete control); 13 to 15 days

| SMILES | Plant response rating, Ryegrass, Italian |
| --- | --- |
| CCCCn1c(-c2cccc(Cl)c2)ncc(C(=O)C2=C(O)CCCC2=O)c1=O [Compound 146] | 15 |

Test system: giant foxtail (Setaria faberii)
Assay: Test B pre-/postemergence plant response
Format: in vivo
Conditions: 62 g ai/ha, postemergence; 0 is no effect, 100 is complete control; 13 to 15 days
Procedure, shortened: as §1

| SMILES | Foxtail, Giant plant response rating (0 to 100 scale) |
| --- | --- |
| CCCCn1c(-c2cccc(Cl)c2)ncc(C(=O)C2=C(O)CCCC2=O)c1=O [Compound 146] | 85 |

Same assay, conditions: Postemergence, 31 g ai/ha; 0 to 100 scale (0 no effect, 100 complete control)

| SMILES | Plant response rating, Foxtail, Giant |
| --- | --- |
| CCCCn1c(-c2cccc(Cl)c2)ncc(C(=O)C2=C(O)CCCC2=O)c1=O [Compound 146] | 75 |
